In paper PMC7044277 (Nature Communications, 2020):
“And” between values parts separate entries of the source, which are not always exact repeats. Identical values can stand only once.

Assays:
[1] = target: T1, DRD4 (D4.4 variant) wild-type (Homo sapiens, UniProt P21917); assay: Radioligand competition binding, [3H]-N-methylspiperone
T1 sequence (P21917 1-419): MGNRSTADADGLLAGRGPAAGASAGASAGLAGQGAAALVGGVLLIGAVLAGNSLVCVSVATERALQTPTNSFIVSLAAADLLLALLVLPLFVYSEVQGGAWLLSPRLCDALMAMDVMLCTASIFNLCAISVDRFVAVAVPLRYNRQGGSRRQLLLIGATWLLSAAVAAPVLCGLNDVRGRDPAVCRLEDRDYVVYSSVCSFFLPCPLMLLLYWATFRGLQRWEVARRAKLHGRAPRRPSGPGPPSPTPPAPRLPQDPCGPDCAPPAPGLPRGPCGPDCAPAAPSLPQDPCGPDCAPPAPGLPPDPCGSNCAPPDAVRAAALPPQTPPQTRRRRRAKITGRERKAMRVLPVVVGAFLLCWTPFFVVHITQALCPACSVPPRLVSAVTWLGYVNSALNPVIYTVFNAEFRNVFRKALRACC

DRD4 (D4.4 variant) [2] = target: T2, DRD4 (D4.4 variant) (Homo sapiens, UniProt P21917); assay: β-arrestin2 recruitment (Tango); format: cell-based; conditions: DRD4; Tango; read-out: EC50 ± SEM
T2 sequence (P21917 1-419): T1 sequence (P21917 1-419)

DRD2 (D2 long receptor) [3] = target: T3, DRD2 (D2 long receptor) (Homo sapiens, UniProt P14416); assay: Gαi/o-mediated cAMP inhibition (GloSensor split-luciferase cAMP reporter), HEK293T; format: cell-based; conditions: for Response, Fig_S11b dose-response: individual replicates;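 as to all read-outs here: compounds applied 15 min at room temperature, then luciferin plus 400 nM isoproterenol to raise cAMP through endogenous β2-adrenergic receptors, luminescence read 15 min later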
T3 sequence (P14416 whole entry): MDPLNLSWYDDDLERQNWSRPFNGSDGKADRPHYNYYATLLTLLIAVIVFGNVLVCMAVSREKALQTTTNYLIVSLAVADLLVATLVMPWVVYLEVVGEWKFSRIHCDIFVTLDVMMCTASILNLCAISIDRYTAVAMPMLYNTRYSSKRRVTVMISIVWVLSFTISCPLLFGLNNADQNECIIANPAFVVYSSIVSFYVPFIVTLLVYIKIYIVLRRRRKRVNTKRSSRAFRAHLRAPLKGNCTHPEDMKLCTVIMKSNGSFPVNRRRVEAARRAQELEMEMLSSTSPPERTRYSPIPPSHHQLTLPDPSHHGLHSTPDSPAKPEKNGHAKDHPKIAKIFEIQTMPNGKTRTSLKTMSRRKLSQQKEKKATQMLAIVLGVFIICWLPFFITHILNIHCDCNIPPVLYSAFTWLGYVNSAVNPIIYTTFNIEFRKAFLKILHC

DRD3 = DRD3 (Homo sapiens, UniProt P35462); assay: β-arrestin2 recruitment (Tango); format: cell-based; conditions: DRD3, Tango
Chain of DRD3 (P35462 whole entry): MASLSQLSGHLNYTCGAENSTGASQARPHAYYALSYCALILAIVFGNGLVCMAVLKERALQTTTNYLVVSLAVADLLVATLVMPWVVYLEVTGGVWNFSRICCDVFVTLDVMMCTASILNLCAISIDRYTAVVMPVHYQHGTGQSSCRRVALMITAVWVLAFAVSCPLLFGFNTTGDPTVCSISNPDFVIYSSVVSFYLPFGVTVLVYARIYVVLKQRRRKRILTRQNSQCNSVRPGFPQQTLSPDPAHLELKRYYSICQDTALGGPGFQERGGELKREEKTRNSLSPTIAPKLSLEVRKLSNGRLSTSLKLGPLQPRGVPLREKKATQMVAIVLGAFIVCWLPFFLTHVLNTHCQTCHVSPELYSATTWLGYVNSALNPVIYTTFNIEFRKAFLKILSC

DRD4 (D4.4 variant) [4] = target: T2, DRD4 (D4.4 variant); assay: Gαi/o-mediated cAMP inhibition (GloSensor); format: cell-based; conditions: DRD4; agonist, cAMP inhibition; read-out: EC50 ± SEM
DRD2 (D2 long receptor) [5] = target: T3, DRD2 (D2 long receptor); assay: β-arrestin2 recruitment (Tango), HTLA cells; format: cell-based; conditions: for Response, Fig_S11c dose-response: individual replicates
DRD3 wild-type = DRD3 wild-type (Homo sapiens, UniProt P35462); assay: Radioligand competition binding, [3H]-N-methylspiperone
Chain of DRD3 wild-type (P35462 whole entry): as above

[6] = target: DRD2 (D2 long receptor) wild-type (Homo sapiens, UniProt P14416); assay: Radioligand competition binding, [3H]-N-methylspiperone, HEK293T membranes; conditions: DRD2; [3H]-methylspiperone (0.8-1.0 nM); read-out: Ki
Chain of DRD2 (D2 long receptor) wild-type (P14416 whole entry): as the sequence (P14416 whole entry) above

DRD2 F1103.28A = DRD2 F1103.28A (Homo sapiens, UniProt P14416, F110A); format: binding; set-up: expressed in transfected cells; host or cells: HEK293T (ATCC CRL-11268); conditions: DRD2 F1103.28A; read-out: Ki
Chain of DRD2 F1103.28A (P14416 whole entry F110A): as the sequence (P14416 whole entry) above, with F110A counted along it

Ki ([1]; DRD4, [3H]-methylspiperone (0.8-1.0 nM), read-out: Ki): 5890 nM | pKi ± SEM ([1]; DRD4 wild-type): 5.23±0.05 | EC50 (DRD4 (D4.4 variant) [2]): > 10000 nM | EC50 (DRD2 (D2 long receptor) [3]; DRD2, agonist, Gαi/o-mediated cAMP inhibition, read-out: EC50 ± SEM): 33.1 ± 18.8 nM | Emax relative to quinpirole response (DRD2 (D2 long receptor) [3]; DRD2, cAMP inhibition): 91.90% | Response, Fig_S11b dose-response (DRD2 (D2 long receptor) [3]; Log[Drug] -11): 20.5404 and 9.648 and 18.1596 and 0.62 | Emax relative to quinpirole response (DRD3): 32.40% | EC50 (DRD3; read-out: EC50 ± SEM): 2530 ± 290 nM | EC50 (DRD4 (D4.4 variant) [4]): > 10000 nM | Emax relative to quinpirole response (DRD2 (D2 long receptor) [5]; DRD2, Tango): 70.08% | EC50 (DRD2 (D2 long receptor) [5]; DRD2, β-arrestin2 recruitment (Tango), read-out: EC50 ± SEM): 797 ± 57.7 nM | Response, Fig_S11c dose-response (DRD2 (D2 long receptor) [5]; Log[Drug] -6.52): 30.014 | Ki (DRD3 wild-type; DRD3, [3H]-methylspiperone (0.8-1.0 nM), read-out: Ki): 760 nM | pKi ± SEM (DRD3 wild-type; DRD3 wild-type): 6.12±0.17 | Ki [6]: > 10000 nM | Ki (DRD2 F1103.28A): > 10000 nM
Compound: CC(NCC1(O)CCCCC1)c1cc2ccccc2o1.Cl (stereo not drawn) [O1LE6]
Response, Fig_S11b dose-response (DRD2 (D2 long receptor) [3]; Log[Drug] -5): 89.3204 and 91.1814 and 93.3649 and 89.4471 and 88.0921 and 76.1419 and 96.2317 and 89.795 and 84.5788 | Response, Fig_S11b dose-response (DRD2 (D2 long receptor) [3]; Log[Drug] -5.52): 91.5039 and 91.6528 and 82.6955 and 86.6619 and 92.27 and 73.2437 and 89.2098 and 91.9183 and 89.3603 | Response, Fig_S11b dose-response (DRD2 (D2 long receptor) [3]; Log[Drug] -6): 93.6874 and 86.8392 and 81.0827 and 85.4951 and 84.0648 and 76.6312 and 94.0081 and 90.9486 and 79.3124 | Response, Fig_S11b dose-response (DRD2 (D2 long receptor) [3]; Log[Drug] -6.52): 82.5466 and 82.8444 and 76.7653 and 79.6611 and 79.6234 and 70.5902 and 84.9299 and 83.4419 and 82.6896 | Response, Fig_S11b dose-response (DRD2 (D2 long receptor) [3]; Log[Drug] -7): 69.4705 and 74.0856 and 77.7579 and 57.4355 and 50.0583 and 54.3867 and 80.2821 and 76.3198 and 67.1078 | Response, Fig_S11b dose-response (DRD2 (D2 long receptor) [3]; Log[Drug] -7.52): 64.6321 and 55.65 and 60.3147 and 22.695 and 37.7317 and 15.9389 and 61.2396 and 56.2574 and 56.2742 | Response, Fig_S11b dose-response (DRD2 (D2 long receptor) [3]; Log[Drug] -8): 44.0874 and 48.1814 and 41.755 and 12.175 and 7.433 and 11.554 and 48.1991 and 55.9732 and 50.8406 | Response, Fig_S11b dose-response (DRD2 (D2 long receptor) [3]; Log[Drug] -8.52): 32.3511 and 30.5646 and 24.436 and 24.7087 and -0.0952 and 5.9082 and 29.5745 and 42.6986 and 35.9443 | Response, Fig_S11b dose-response (DRD2 (D2 long receptor) [3]; Log[Drug] -9): 34.212 and 32.0286 and 29.2744 and 20.4555 and 1.072 and 15.4496 and 33.7709 and 34.4062 and 30.9956 | Response, Fig_S11b dose-response (DRD2 (D2 long receptor) [3]; Log[Drug] -11.52): 13.5185 and 18.481 and 17.1411 and 15.3743 and -1.1867 and 2.859 | Response, Fig_S11b dose-response (DRD2 (D2 long receptor) [3]; Log[Drug] -12): -3.8502 and -19.5316 and -15.1399 and -4.9694 and 6.341 and -2.4664 and 2.0891 and 0.1832 and -19.7287 | response, Fig_S11c dose-response source data (DRD2 (D2 long receptor) [5]; Fig_S11c, Log[Drug] -5, replicate values): 73.3598 and 82.2115 and 60.0642 and 63.6209 and 63.3142 and 65.0045 and 51.1507 and 58.9513 and 48.4491 | Response, Fig_S11c dose-response (DRD2 (D2 long receptor) [5]; Log[Drug] -7): 10.4893 and 10.462 and 11.7147 and 9.282 and 6.266 and 8.074 and 10.4045 and 10.5346 and 7.978 | Response, Fig_S11c dose-response (DRD2 (D2 long receptor) [5]; Log[Drug] -7.52): 6.009 and 6.371 and 5.905 and 4.934 and 4.227 and 4.993 and 4.682 and 6.374 and 4.32 | Response, Fig_S11c dose-response (DRD2 (D2 long receptor) [5]; Log[Drug] -8): 4.1038 and 4.071 and 3.602 and 3.942 and 4.272 and 4.026 and 4.857 and 4.849 and 4.688 | Response, Fig_S11c dose-response (DRD2 (D2 long receptor) [5]; Log[Drug] -8.52): 3.803 and 4.0098 and 4.032 and 4.312 and 4.259 and 4.357 and 4.07 and 4.763 and 3.775 | Response, Fig_S11c dose-response (DRD2 (D2 long receptor) [5]; Log[Drug] -9): 4.244 and 4.685 and 3.406 and 3.869 and 4.425 and 4.183 and 3.883 and 3.8713 and 3.512 | Response, Fig_S11c dose-response (DRD2 (D2 long receptor) [5]; Log[Drug] -9.52): 4.538 and 3.818 and 3.898 and 3.793 and 4.174 and 4.462 and 3.884 and 3.705 and 3.5 | Response, Fig_S11c dose-response (DRD2 (D2 long receptor) [5]; Log[Drug] -10): 3.12 and 5.224 and 4.08 and 4.167 and 4.261 and 4.387 and 3.865 and 3.579 and 4.318 | Response, Fig_S11c dose-response (DRD2 (D2 long receptor) [5]; Log[Drug] -10.52): 3.591 (2×) and 4.048 and 3.394 and 3.852 and 3.958 and 3.858 and 3.561 and 3.474 | Response, Fig_S11c dose-response (DRD2 (D2 long receptor) [5]; Log[Drug] -11): 5.996 and 3.267 and 3.43 and 3.872 and 3.92 and 4.064 and 4.092 and 3.609 and 4.397 | Response, Fig_S11c dose-response (DRD2 (D2 long receptor) [5]; Log[Drug] -11.52): 4.744 and 4.248 and 3.765 and 3.919 and 3.901 and 3.85 and 3.587 and 4.237 and 3.779 | Response, Fig_S11c dose-response (DRD2 (D2 long receptor) [5]; Log[Drug] -12): 4.068 (2×) and 3.901 and 3.393 and 4.0327 and 3.921 and 3.9 and 3.99 and 3.547
